Test results published in patent US12384816B2, “Blood-brain barrier permeable peptide” (NATIONAL UNIVERSITY CORPORATION KUMAMOTO UNIVERSITY, priority 2018, dated 2025).
Positions of bridges follow the written chain, without caps; N, C: chain ends. Residues, ends and D or L forms follow the SMILES beside them.

How the values were obtained:
Type in all cases: cell-based, human
hCMEC/D3 cells [1] = assay: Influence of monensin on hCMEC/D3 permeation of SLS-phage; conditions: monensin-containing medium for 18 hours, concentration-dependent
Method: The medium at the luminal side and the abluminal side was replaced by a monensin-containing medium, and culture was further performed for 18 hours.

hCMEC/D3 cells [2] = assay: Influence on tight junction (TEER) of hCMEC/D3 cells; conditions: 0 to 100 μM, until 48 hours
Method: The synthetic cyclic peptide SLSHSPQ (SEQ ID NO: 1) (0 to 100 μM) before labeling prepared in Example 3 was added to the cells, and they were incubated in a CO2 incubator at 37° C. The influence on tight junction was evaluated by measuring TEER over time until 48 hours later.

hCMEC/D3 cells [3] = assay: Cytotoxicity (cell counting kit-8) in hCMEC/D3 cells; conditions: 0 to 100 μM, 24 and 48 hours
Method: The synthetic cyclic peptide SLSHSPQ (SEQ ID NO: 1) (0 to 100 μM) was added to the cells, and incubated in a CO2 incubator at 37° C. The cell viability after 24 and 48 hours was calculated using the cell counting kit-8.

hCMEC/D3 cells [4] = assay: Uptake of FAM-labeled cyclic peptide into hCMEC/D3 cells (confocal microscopy); conditions: 10 µM, 37° C., 10, 30 and 60 minutes
Method: A FAM-labeled synthetic cyclic peptide having the SLSHSPQ (SEQ ID NO: 1) sequence was prepared by requesting Scrum Co., Ltd. A peptide having the sequence of […] (SEQ ID NO: 5), which contains […] (SEQ ID NO: 6), was chemically synthesized, and then a cyclic peptide was formed by forming a disulfide bond between the cysteine residues. Then, a lysine residue was added to the C-terminal and FAM was further bonded to prepare a FAM-labeled cyclic peptide.
The FAM-labeled synthetic cyclic peptide SLSHSPQ (SEQ ID NO: 1) (10 µM) was added to the cells, and incubated on a 37° C. hot plate for 10, 30 and 60 minutes. These were washed with 500 μL of cold PBS three times, and fixed with 4% PFA for 10 minutes. […] (registered trademark) Mounting Medium with DAPI was dropped, then, a cover glass was place thereon to enclose it, and FAM and DAPI were observed by a confocal microscopy. […] From this, it was confirmed that the synthetic cyclic peptide SLSHSPQ (SEQ ID NO: 1) is internalized in the cell.

hCMEC/D3 cells [5] = assay: Influence of ligands on hCMEC/D3 permeation of SLS-phage
Method: Using the hCMEC/D3 cells, influences by various ligands (vitronectin, fibrinogen, RGD peptide, transferrin) on the BBB permeability of the phage presenting the peptide SLSHSPQ (SEQ ID NO: 1) of the present invention were tested.
In the +vitronectin group, human vitronectin (R&D Systems, Inc.) was added to give 20 μg/mL. In the +fibrinogen group, human fibrinogen (Wako) was added to give 50 μg/mL. In the +RGD group, an RGD peptide (SIGMA) was added to give 100 μM. In the +holo-Tf (transferrin) group, holo-Tf (SIGMA) was added to give 100 μM.

Molecule: CC[C@@]1([C@@H]2O[C@@H]([C@H]3O[C@@](O)(CO)[C@H](C)C[C@@H]3C)C[C@@H]2C)CC[C@H]([C@]2(C)CC[C@]3(C[C@H](O)[C@@H](C)[C@@H]([C@@H](C)[C@@H](OC)[C@H](C)C(=O)O)O3)O2)O1 [monensin]
- effect on hCMEC/D3 cell permeation amount of the SLS-phage (hCMEC/D3 cells [1]): increased

Molecule: CC(C)C[C@@H]1NC(=O)[C@H](CO)NC(=O)[C@@H](NC(=O)[C@H](C)N)CSSC[C@@H](C(=O)NCC(=O)NCC(=O)NCC(=O)N[C@@H](CO)C(=O)O)NC(=O)[C@H](CCC(N)=O)NC(=O)[C@@H]2CCCN2C(=O)[C@H](CO)NC(=O)[C@H](Cc2c[nH]cn2)NC(=O)[C@H](CO)NC1=O [synthetic cyclic peptide SLSHSPQ] (H-ACSLSHSPQCGGGS-OH; disulfide 2-10)
- influence on tight junction (TEER) (hCMEC/D3 cells [2]): did not reduce the tight junction
- cytotoxicity (cell viability) (hCMEC/D3 cells [3]): no cytotoxicity

Molecule: FAM-labeled synthetic cyclic peptide SLSHSPQ: Cyclic ACSLSHSPQCGGGS with lysine residue added to the C-terminal and FAM bonded (not fully specified; cyclic; C-terminal lysine added; FAM label)
- uptake into hCMEC/D3 cells (hCMEC/D3 cells [4]): taken up into the cells

Molecule: RGD peptide
- effect on permeation of the SLS-phage (hCMEC/D3 cells [5]; ligand 100 μM): did not inhibit

Molecule: fibrinogen
- effect on permeation of the SLS-phage (hCMEC/D3 cells [5]; human fibrinogen 50 μg/mL): did not inhibit

Molecule: holo-transferrin
- effect on permeation of the SLS-phage (hCMEC/D3 cells [5]; ligand 100 μM): promoted

B1: vitronectin (protein, UniProt P04004 20-478, looked up)
Vitronectin: DQESCKGRCTEGFNVDKKCQCDELCSYYQSCCTDYTAECKPQVTRGDVFTMPEDEYTVYDDGEEKNNATVHEQVGGPSLTSDLQAQSKGNPEQTPVLKPEEEAPAPEVGASKPEGIDSRPETLHPGRPQPPAEEELCSGKPFDAFTDLKNGSLFAFRGQYCYELDEKAVRPGYPKLIRDVWGIEGPIDAAFTRINCQGKTYLFKGSQYWRFEDGVLDPDYPRNISDGFDGIPDNVDAALALPAHSYSGRERVYFFKGKQYWEYQFQHQPSQEECEGSSLSAVFEHFAMMQRDSWEDIFELLFWGRTSAGTRQPQFISRDWHGVPGQVDAAMAGRIYISGMAPRPSLAKKQRFRHRNRKGYRSQRGHSRGRNQNSRRPSRATWLSLFSSEESNLGANNYDDYRMDWLVPATCEPIQSVFFFSGDKYYRVNLRTRRVDTVDPPYPRSIAQYWLGCPAPGHL
notes: human vitronectin (R&D Systems, Inc.)
- effect on permeation of the SLS-phage (hCMEC/D3 cells [5]; human vitronectin 20 μg/mL): inhibited
